Laboratory results as given in patent US20220184003A1, “Formulations of Cannabidiol Derivatives and Their Use as Modulators of Cannabinoid Receptor Type 2 (CB2)” (EMERALD HEALTH PHARMACEUTICALS INC, priority 2019, published 2022).
Converted amounts (≈) assume the structure as drawn. Read-outs that look alike come from different tables or passages of the source.

What was measured:
physchem [1] = format: physicochemical; settings: oil or lipid
Experimental: The solubility of a compound is an important factor in determining its absorption from the gastrointestinal tract and ultimately its oral bioavailability. First it was determined the solubility of VCE-004.8 in a collection of different solvents (e.g., aqueous, lipidic, organic, etc.). Additionally, a test of stability of VCE-004.8 in selected solvents was also used as a criterion for selection of the best solvents.

physchem [2] = settings: pH 7.4
From the text: Lipophilicity is a key determinant of the PK behavior of drugs. It can influence distribution into tissues, absorption and the binding characteristics of a drug, as well as being an important factor in determining the solubility of a compound. Log D (distribution co-efficient) is used as a measure of lipophilicity.
The solution was transferred to tubes, centrifuged and the supernatant is drawn off the top, leaving any solid compound in the bottom. This supernatant was then syringe filtered through 0.2 μm filters to produce the initial solution. Three vials were prepared containing values. […] The vials were mixed to equilibrium, then centrifuged to ensure the two phases were fully separated before the octanol was removed and the buffer samples analyzed. For the quantitative analysis, the aqueous solutions were analyzed by LC MS/MS. The amount of VCE-004.8 in each vial was quantified against a 6 points standard curve which was produced by serially diluting the initial solution. Log D was calculated using the equation, shown in FIG. 7, wherein ConcINITlAL is a concentration of compound in the initial aqueous solution, ConcFINAL is a concentration of compound in final aqueous phase, Vaq is a volume of aqueous phase, and Voct is a volume of octanol phase.

[3] = tested on: TGFβ-induced Col1A2 gene transcription and collagen synthesis; assay: TGFβ-induced fibrotic responses in vitro; format: cell-based
[4] = Stability of VCE-004.8 during phytosomization (reflux in ethyl acetate); format: physicochemical; settings: area %
Experimental: FIG. 8 depicts a stability of VCE-004.8 during phytosomization, at reflux in ethyl acetate at different times (45 min, 6 hr and 24 hr).
A preliminary investigation of the compound stability gave indication that the active principle is stable in the process conditions, although an impurity peak not detected in the starting material and almost neglectable at […], increased after 6 hr (1.7% in area %) and grew after 24 hr (6.2% in area %), as shown in FIG. 8.

physchem [5] = format: physicochemical; settings: for solubility at 24 h / solubility at 24 hr: thermodynamic from solid
Experimental: A quantitative thermodynamic solubility determination on VGE-004.8 was performed. Suspensions of VCE-004.8 were prepared in different pharmaceutical vehicles and organic solvents. The organic solvents, lipid and co-solvent vehicles consisted of pure solvent or lipid, while the cyclodextrin solutions were prepared in phosphate buffer pH 7.0. […] The concentration of VCE-004.8 in solution was determined by HPLC analysis.

[6] = Stress test of VCE-004.8 drug substance; format: physicochemical
Experimental: A stress test was performed concluding that VCE-004.8 drug substance is stable for 3 days at 65° C.+/−5° C. in glass vials. […] A short-term stability study at 40° C. was completed with indecisive results due to the early development stage of the impurity method.

[7] = tested on: Theiler Murine Encephalomyelitis Virus-induced demyelmating disease model (TMEV); assay: TMEV model; format: in vivo, mice
From the text: 2) Theiler Murine Encephalomyelitis Virus-induced demyelmating disease model (TMEV) that mimics progressive forms of MS.

CB1 receptor = CB1 receptor (Homo sapiens, UniProt P21554); assay: Receptor screening study, CB1 receptor affinity; format: binding
[8] = Solubility of VCE-004.8 and its phytosomes in buffer medium at various pH; format: physicochemical; settings: 37 °C, thermodynamic from solid
Experimental: The solubility of Phytosome-VCE-004.8 was tested in buffer medium at various pH (1.2, 4, 5, 6, […] and 8.0). For each pH, independent supersaturated solutions of VCE-004.8 and its phytosomes were prepared. The suspensions w ere sonicated for 10 min and kept in a water bath at 37° C. for 2 hr. Then the final suspensions were filtered (with 0.45 PTFE disposable fitter) and the solutions were injected for HPLC analysis. […] The 1:2 ratio resulted to be slightly more soluble than the 1:1 ration, and the best behavior was shown at neutral and basic pH. Accordingly. Phytosome 1:2 was selected for following assessment of PK profile in rats (Formulation n°8). Phytosome 1:2 contained 24% of VCE-004.8 and was prepared in Methyl cellulose 1% in water for oral administration.

[9] = Solvent shift method in SGF and SIF; format: physicochemical; settings: for API concentration in solution: SIF
Experimental: These experiments applied to a 5 mg/mL solution of VCE-004.8 in DMSO, of which 80 μL was added to 4 mL polymer solutions prepared in simulated intestinal fluid (SIF) and simulated gastric fluid (SGF). Subsequently the samples were incubated at 25° C. under continuous stirring, and after 0.5, 1, 2 and 4 hr, an aliquot was taken, filtered and analyzed by HPLC to determine the VCE-004.8 concentration in solution. Results are presented in FIG. 11 (SGF) and FIG. 12 (SIF).

Chain of CB1 receptor (P21554 whole entry): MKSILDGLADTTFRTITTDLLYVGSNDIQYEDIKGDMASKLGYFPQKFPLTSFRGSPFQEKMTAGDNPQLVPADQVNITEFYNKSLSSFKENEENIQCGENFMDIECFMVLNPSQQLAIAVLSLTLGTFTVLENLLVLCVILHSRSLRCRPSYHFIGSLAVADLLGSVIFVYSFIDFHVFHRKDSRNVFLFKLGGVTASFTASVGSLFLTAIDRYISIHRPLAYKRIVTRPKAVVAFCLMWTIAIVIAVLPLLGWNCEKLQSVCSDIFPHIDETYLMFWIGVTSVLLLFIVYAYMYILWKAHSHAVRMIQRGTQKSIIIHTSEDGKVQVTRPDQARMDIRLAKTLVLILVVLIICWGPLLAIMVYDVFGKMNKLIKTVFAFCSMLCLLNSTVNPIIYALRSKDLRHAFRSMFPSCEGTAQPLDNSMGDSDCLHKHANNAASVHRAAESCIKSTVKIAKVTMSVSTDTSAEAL

Structure (SMILES): C=C(C)C1CCC(C)=C[C@H]1C1=C(O)C(=O)C(CCCCC)=C(NCc2ccccc2)C1=O (stereo partly drawn) [VCE-004.8, (1′R,6′R)-3-(Benzylamine)-6-hydroxy-3′-methyl-4-pentyl-6′-(prop-1-en-2-yl)[1,1′-bi(cyclohexane)]-2′,3,6-triene-2,5-dione]
- solubility (physchem [1]; 25 °C): 17700 µg/mL (≈ 40800 µM)
- solubility (physchem [1]; 37 °C): 34500 µg/mL (≈ 79600 µM)
- logD (physchem [2]): > 5
- TGFβ-induced Col1A2 gene transcription and collagen synthesis [3]: inhibited
- TGFβ-mediated myofibroblast differentiation [3]: inhibited
- wound-healing activity [3]: impaired
- impurity peak ([4]; after 6 hr at reflux in ethyl acetate): 1.7%
- impurity peak ([4]; after 24 hr at reflux in ethyl acetate): 6.2%
- Solubility class (physchem [5]): practically insoluble
- solubility at 24 h (physchem [5]; 25 °C, oil or lipid, Solubility): 35700 µg/mL (≈ 82300 µM)
- solubility at 24 h (physchem [5]; 25 °C, oil or lipid, Solubility class (Ph. Eur.)): 33000 to 100000 µg/mL (≈ 76100 to 231000 µM)
- solubility at 24 h (physchem [5]; 25 °C, pH 1, simulated gastric fluid, Solubility): < 8 µg/mL
- solubility at 24 h (physchem [5]; 25 °C, pH 1, simulated gastric fluid, Solubility class (Ph. Eur.)): < 100 µg/mL
- solubility at 24 h (physchem [5]; 25 °C, pH 2, aqueous buffer, Solubility): < 8 µg/mL
- solubility at 24 h (physchem [5]; 25 °C, pH 5, aqueous buffer, Solubility): < 8 µg/mL
- solubility at 24 h (physchem [5]; 25 °C, pH 5, aqueous buffer, Solubility class (Ph. Eur.)): < 100 µg/mL
- solubility at 24 hr (physchem [5]; 25 °C, pH 7, aqueous buffer, Solubility): < 8 µg/mL
- solubility at 24 hr (physchem [5]; 25 °C, pH 7, aqueous buffer, Solubility class (Ph. Eur.)): < 100 µg/mL
- solubility at 24 h (physchem [5]; 25 °C, pH 7, aqueous with cosolvent or surfactant or cyclodextrin, Solubility class (Ph. Eur.)): < 100 µg/mL
- solubility at 24 hr (physchem [5]; 25 °C, pH 9, aqueous buffer, Solubility): < 8 µg/mL
- solubility at 24 hr (physchem [5]; 25 °C, pH 9, aqueous buffer, Solubility class (Ph. Eur.)): < 100 µg/mL
- solubility at 24 h (physchem [5]; 37 °C, oil or lipid, Solubility): 23700 µg/mL (≈ 54700 µM)
- Solubility class (Ph. Eur.) (physchem [5]; pH 2): Practicalty insoluble
- Solubility class (physchem [5]; pH 7): practically insoluble
- stress test: stable for ([6]; 65° C.+/−5° C. in glass vials): 3 days
- temperatures at which degradation of the product was observed ([6]; stress test): above 65 °C
- axonal disorganization ([7]; TMEV mice): prevented
- clinical severity and neuropathology ([7]; TMEV model, actimeter test): attenuated
- microglial reactivity and infiltration of inflammatory cells ([7]; TMEV-infected mice): significantly reduced
- motor deficits ([7]; mice infected with Theiler's virus): ameliorated
- demyelination ([7]; spinal cord of TMEV mice): significantly reduced
- number of infiltrated CD4+ T cells and immune cells ([7]; spinal cord of TMEV mice): reduced
- affinity for the CB1 receptor (CB1 receptor; at a concentration of 10 μM (4336 ng/mL)): did not show affinity
- affinity for the CB1 receptor (CB1 receptor; receptor screening study): no detectable affinity
- solubility thermodynamic at 2 h ([8]; pH 1.2, simulated gastric fluid): 0.005 µg/mL (≈ 0.0115 µM)
- solubility thermodynamic at 2 h ([8]; pH 4.5, aqueous buffer): 0.005 µg/mL (≈ 0.0115 µM)
- solubility thermodynamic at 2 h ([8]; pH 6.8, aqueous buffer): 0.003 µg/mL (≈ 0.00692 µM)
- solubility thermodynamic at 2 h ([8]; pH 7.4, aqueous buffer): 0.001 µg/mL (≈ 0.00231 µM)
- solubility thermodynamic at 2 h ([8]; pH 8, aqueous buffer): 0.001 µg/mL (≈ 0.00231 µM)
- VCE-004.8 concentration in solution ([9]; SGF, TGPS solution, after 4 hr, 25° C.): about 0.03 mg-mL
- API concentration in solution ([9]; Eudragit L100, supersaturation for at least 1 hr): approximately 60 μg/mL
- API concentration in solution ([9]; PVP K30, supersaturation for at least 1 hr): approximately 60 μg/mL
- API concentration in solution ([9]; all the HPMC derivates (except for HPMC as is), from 0.5 to 1 hr): approximately 60 μg/mL
